Laboratory results: the NIST ThermoML archive (doi:10.1021/acs.jced.9b00776)
± gives the expanded uncertainty stated by the source.

Assays:
[1] = for Triple point temperature: Crystal; for Triple point temperature / Glass transition temperature: DSC; for mass density / viscosity: 100.9 kPa, Liquid; for mass density: Vibrating tube method; for viscosity: Cone and plate viscometry
[2] = Molar enthalpy of transition or fusion; conditions: Crystal; DSC

SMILES | Triple point temperature [1] [K] | Molar enthalpy of transition or fusion [2] [kcal/mol] | mass density ([1]; 293.15 K) [kg/m3] | viscosity ([1]; 293.2 K) [mPa·s] | mass density ([1]; 298.15 K) [kg/m3] | viscosity ([1]; 298.2 K) [mPa·s] | mass density ([1]; 303.15 K) [kg/m3] | viscosity ([1]; 303.2 K) [mPa·s] | mass density ([1]; 313.15 K) [kg/m3] | viscosity ([1]; 313.2 K) [mPa·s] | mass density ([1]; 323.15 K) [kg/m3] | viscosity ([1]; 323.2 K) [mPa·s] | mass density ([1]; 333.15 K) [kg/m3] | viscosity ([1]; 333.2 K) [mPa·s] | mass density ([1]; 343.15 K) [kg/m3] | viscosity ([1]; 343.2 K) [mPa·s] | mass density ([1]; 353.15 K) [kg/m3] | viscosity ([1]; 353.2 K) [mPa·s] | Glass transition temperature [1] [°C]
CC(C)[n+]1ccn(C)c1.F[P-](F)(F)(F)(F)F [1-methyl-3-(1-methylethyl)imidazolium hexafluorophosphate] | 374 ± 1.8 | 3.75 ± 0.12 |  |  |  |  |  |  |  |  |  |  |  |  |  |  |  |  | 
CC(C)[n+]1ccn(C)c1.[I-] [1-methyl-3-(1-methylethyl)imidazolium iodide] | 383.4 ± 1.8 | 3.9 ± 0.12 |  |  |  |  |  |  |  |  |  |  |  |  |  |  |  |  | 
CC(C)[n+]1ccn(C)c1.O=S(=O)([N-]S(=O)(=O)C(F)(F)F)C(F)(F)F | 283.5 ± 1.8 | 5.78 ± 0.167 | 1481.9 ± 2 | 58.3 ± 4.7 | 1476.8 ± 2 | 45.5 ± 3.7 | 1472 ± 2 | 36.9 ± 3 | 1462.5 ± 2 | 24.5 ± 2 | 1452.4 ± 2 | 19.3 ± 1.6 | 1442.9 ± 2 | 14.5 ± 1.2 | 1433.4 ± 2 | 11.2 ± 0.9 | 1423.7 ± 2 | 8.9 ± 0.7 | 
C[n+]1ccn(C(C)(C)C)c1.O=S(=O)([N-]S(=O)(=O)C(F)(F)C(F)(F)F)C(F)(F)C(F)(F)F | 294.3 ± 1.8 | 3.99 ± 0.12 | 1530.8 ± 2 | 571.1 ± 53 | 1525.2 ± 2 | 367.2 ± 33 | 1519.9 ± 2 | 246.7 ± 21 | 1509.6 ± 2 | 126.1 ± 10 | 1498.9 ± 2 | 80.9 ± 6.6 | 1488.6 ± 2 | 50.7 ± 4.1 | 1478.4 ± 2 | 33.9 ± 2.7 | 1467.8 ± 2 | 23.8 ± 1.9 | -58.0 ± 1.8
C[n+]1ccn(C(C)(C)C)c1.O=S(=O)([N-]S(=O)(=O)C(F)(F)F)C(F)(F)F | 280.4 ± 1.8 | 5.47 ± 0.167 | 1451.5 ± 2 | 167.3 ± 14 | 1446.6 ± 2 | 121.4 ± 10 | 1442 ± 2 | 91.5 ± 7.4 | 1432.8 ± 2 | 55.6 ± 4.5 | 1423.1 ± 2 | 37.5 ± 3 | 1413.8 ± 2 | 26.2 ± 2.1 | 1404.5 ± 2 | 19 ± 1.5 | 1395 ± 2 | 14.5 ± 1.2 | 
C[n+]1ccn(C(C)(C)C)c1.F[P-](F)(F)(F)(F)F [1-tert-butyl-3-methylimidazolium hexafluorophosphate] | 421 ± 1.8 | 5.52 ± 0.167 |  |  |  |  |  |  |  |  |  |  |  |  |  |  |  |  | 
C[n+]1ccn(C(C)(C)C)c1.[I-] [1-tert-butyl-3-methylimidazolium iodide] | 432.7 ± 1.8 | 3.63 ± 0.12 |  |  |  |  |  |  |  |  |  |  |  |  |  |  |  |  | 
CC(C)n1cc[n+](C)c1.O=S(=O)([N-]S(=O)(=O)C(F)(F)C(F)(F)F)C(F)(F)C(F)(F)F |  |  | 1556.7 ± 2 | 172.6 ± 14 | 1551.3 ± 2 | 121.4 ± 10 | 1546 ± 2 | 91.7 ± 7.5 | 1535.5 ± 2 | 53 ± 4.3 | 1524.6 ± 2 | 38 ± 3.1 | 1514 ± 2 | 26.4 ± 2.1 | 1503.5 ± 2 | 19.1 ± 1.5 | 1492.8 ± 2 | 14.4 ± 1.2 | -75.7 ± 1.8
